Laboratory results from patent US5679805A, “Photochromic spironaphthopyran compounds” (Vision-Ease Lens, Inc., priority 1995, dated 1997).

Legend:
[1] = maximum absorption wavelength of chloroform-dissolved photochromic compounds irradiated with ultraviolet light; type: physicochemical; conditions: for maximum absorption wavelength λmax: Chloroform, maximum wavelength of 350 nanometers; for maximum wavelength of activation vs Comparative Example 1: compared with Comparative Example 1, 3,3-diphenyl-8-methoxy-3H-naphtho[2,1-b]pyran
[2] = fade time T1/2 of chloroform-dissolved photochromic compounds after isolation from ultraviolet light; type: physicochemical; design: key to T1/2 (fade time), footnoted reading: *: Fades too fast to obtain readings; conditions: room temperature (72° F.); for T1/2 (fade time): absorbance of activated form to one half of maximum
Method: Additionally, a purchased sample of 3,3-diphenyl-naphtho-3H[2,1-b]pyran, identified as Comparative Example 2, was dissolved in a separate container of chloroform.
Each of the chloroform-dissolved photochromic compounds of Examples 1-3 and Comparative Examples 1-2 were then irradiated with ultraviolet light with a maximum wavelength of 350 nanometers, and the maximum absorption wavelength λmax was determined for each of the chloroform-dissolved photochromic compound. The fade time, T1/2 was then determined for each of the irradiated compounds. The fade time for a particular chloroform dissolved photochromic compound is defined as the time interval, at room temperature (72° F.), for the absorbance of the activated form of the chloroform-dissolved photochromic compound to decrease to one half of the maximum absorbance, after the photochromic compound is isolated from the activating source of ultraviolet light. The maximum absorption wavelength and fade time determined for each of the irradiated photochromic compounds of Examples 1-3 and Comparative Examples 1-2 are presented in Table 1: […]

[3] = color on activation by ultraviolet light; type: physicochemical
[4] = cited from earlier work
[5] = irradiated with ultraviolet light

maximum absorption wavelength λmax [1, 5] | maximum wavelength of activation vs Comparative Example 1 [1] | activated maximum wavelength of absorption ([1]; dissolved in chloroform, irradiated with ultraviolet light) | T1/2 (fade time) [2] | color when activated by ultraviolet light ([3]; activated by ultraviolet light) | color of blend with blue-turning photochromic compounds when activated ([3]; blend with blue-turning photochromic compounds, such as substituted spiroindolino naphthoxazine, ultraviolet radiation) | T1/2 (fade time), footnoted reading [2] | SMILES | photochromic at room temperature [4]
502 | longer maximum wavelength of activation | about 502 nanometers | 1.9 s | deep shade of red | intense shade of gray |  | C1=CC2(Oc3ccc4c5c(ccc4c31)OC1(C=C5)c3ccccc3Sc3ccccc31)c1ccccc1Sc1ccccc12 [Example 2] | 
 |  |  | 10 s |  |  |  | COc1ccc2c3c(ccc2c1)OC(c1ccccc1)(c1ccccc1)C=C3 [Comparative Example 1, 3,3-diphenyl-8-methoxy-3H-naphtho[2,1-b]pyran, reference compound] | 
435 |  |  | 13 s |  |  |  | C1=CC(c2ccccc2)(c2ccccc2)Oc2ccc3ccccc3c21 [Comparative Example 2, 3,3-diphenyl-naphtho-3H[2,1b]pyran, reference compound] | photochromic at room temperature
490 | longer maximum wavelength of activation |  |  |  |  | * | C1=CC2(Oc3ccc4c5c(ccc4c31)OC1(C=C5)c3ccccc3-c3ccccc31)c1ccccc1-c1ccccc12 [Example 1] | 
